Test [1] addresses T1, PI3K-alpha (Homo sapiens, UniProt P42336).
T1 construct: purchased Upstate; Millipore 14-602
The test can be described thus: HTRF PI3K biochemical assay, alpha isoform. Conditions: ratio PI3K-alpha IC50 value / PI3K-delta IC50 value.

Test [2] addresses T2, PI3K-delta (Homo sapiens, UniProt O00329).
T2 construct: purchased Upstate; Millipore 14-604
Kind of test: HTRF PI3K biochemical assay, delta isoform. Conditions: form screened (neutral or TFA salt) given, read-out: PI3Kdelta IC50.

T2 sequence (O00329 whole entry): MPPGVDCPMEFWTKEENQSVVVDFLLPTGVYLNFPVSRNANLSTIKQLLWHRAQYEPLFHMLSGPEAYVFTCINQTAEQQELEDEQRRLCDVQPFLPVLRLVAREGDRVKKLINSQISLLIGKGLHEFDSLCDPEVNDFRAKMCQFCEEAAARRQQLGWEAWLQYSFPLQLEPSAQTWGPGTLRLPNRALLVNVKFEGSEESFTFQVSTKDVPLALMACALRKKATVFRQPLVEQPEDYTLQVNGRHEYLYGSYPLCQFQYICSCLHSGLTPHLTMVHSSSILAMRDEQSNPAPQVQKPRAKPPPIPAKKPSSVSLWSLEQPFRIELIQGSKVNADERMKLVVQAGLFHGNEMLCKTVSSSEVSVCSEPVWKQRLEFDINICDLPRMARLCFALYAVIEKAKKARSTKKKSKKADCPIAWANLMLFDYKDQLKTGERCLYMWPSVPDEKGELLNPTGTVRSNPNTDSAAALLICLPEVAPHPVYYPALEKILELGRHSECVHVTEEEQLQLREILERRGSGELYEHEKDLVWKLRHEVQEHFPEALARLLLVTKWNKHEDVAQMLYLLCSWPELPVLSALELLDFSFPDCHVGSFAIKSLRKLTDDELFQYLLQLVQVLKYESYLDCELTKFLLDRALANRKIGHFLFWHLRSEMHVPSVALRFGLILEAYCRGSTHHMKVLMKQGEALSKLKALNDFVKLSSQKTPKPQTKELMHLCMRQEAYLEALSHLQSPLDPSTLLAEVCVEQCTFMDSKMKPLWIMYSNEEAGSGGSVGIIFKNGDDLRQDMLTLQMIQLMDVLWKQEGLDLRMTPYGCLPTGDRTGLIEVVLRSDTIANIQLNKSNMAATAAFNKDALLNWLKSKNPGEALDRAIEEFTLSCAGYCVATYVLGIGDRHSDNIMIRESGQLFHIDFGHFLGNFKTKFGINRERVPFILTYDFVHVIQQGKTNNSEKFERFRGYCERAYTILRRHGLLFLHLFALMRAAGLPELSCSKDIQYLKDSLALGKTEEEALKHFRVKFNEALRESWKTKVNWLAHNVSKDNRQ
T2 sequence (P27986 whole entry partner): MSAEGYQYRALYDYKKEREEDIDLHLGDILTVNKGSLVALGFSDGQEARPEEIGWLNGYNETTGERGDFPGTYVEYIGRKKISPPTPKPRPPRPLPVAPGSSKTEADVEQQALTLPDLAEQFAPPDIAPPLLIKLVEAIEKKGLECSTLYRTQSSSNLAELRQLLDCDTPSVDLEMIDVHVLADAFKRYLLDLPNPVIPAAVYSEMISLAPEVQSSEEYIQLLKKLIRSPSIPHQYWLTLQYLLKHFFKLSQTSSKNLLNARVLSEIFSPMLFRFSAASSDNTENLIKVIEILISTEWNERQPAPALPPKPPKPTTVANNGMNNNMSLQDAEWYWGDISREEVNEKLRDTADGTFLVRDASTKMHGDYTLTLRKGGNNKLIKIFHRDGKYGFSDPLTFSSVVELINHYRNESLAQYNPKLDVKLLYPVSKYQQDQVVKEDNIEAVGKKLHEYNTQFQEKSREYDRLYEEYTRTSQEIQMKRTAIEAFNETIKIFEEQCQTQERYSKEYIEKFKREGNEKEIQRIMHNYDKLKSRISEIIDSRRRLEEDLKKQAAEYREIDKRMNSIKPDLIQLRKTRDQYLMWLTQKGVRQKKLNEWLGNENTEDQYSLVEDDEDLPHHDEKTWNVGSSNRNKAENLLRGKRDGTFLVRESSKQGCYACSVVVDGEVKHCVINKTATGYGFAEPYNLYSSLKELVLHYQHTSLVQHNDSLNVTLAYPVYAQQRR
T1 sequence (P42336 whole entry): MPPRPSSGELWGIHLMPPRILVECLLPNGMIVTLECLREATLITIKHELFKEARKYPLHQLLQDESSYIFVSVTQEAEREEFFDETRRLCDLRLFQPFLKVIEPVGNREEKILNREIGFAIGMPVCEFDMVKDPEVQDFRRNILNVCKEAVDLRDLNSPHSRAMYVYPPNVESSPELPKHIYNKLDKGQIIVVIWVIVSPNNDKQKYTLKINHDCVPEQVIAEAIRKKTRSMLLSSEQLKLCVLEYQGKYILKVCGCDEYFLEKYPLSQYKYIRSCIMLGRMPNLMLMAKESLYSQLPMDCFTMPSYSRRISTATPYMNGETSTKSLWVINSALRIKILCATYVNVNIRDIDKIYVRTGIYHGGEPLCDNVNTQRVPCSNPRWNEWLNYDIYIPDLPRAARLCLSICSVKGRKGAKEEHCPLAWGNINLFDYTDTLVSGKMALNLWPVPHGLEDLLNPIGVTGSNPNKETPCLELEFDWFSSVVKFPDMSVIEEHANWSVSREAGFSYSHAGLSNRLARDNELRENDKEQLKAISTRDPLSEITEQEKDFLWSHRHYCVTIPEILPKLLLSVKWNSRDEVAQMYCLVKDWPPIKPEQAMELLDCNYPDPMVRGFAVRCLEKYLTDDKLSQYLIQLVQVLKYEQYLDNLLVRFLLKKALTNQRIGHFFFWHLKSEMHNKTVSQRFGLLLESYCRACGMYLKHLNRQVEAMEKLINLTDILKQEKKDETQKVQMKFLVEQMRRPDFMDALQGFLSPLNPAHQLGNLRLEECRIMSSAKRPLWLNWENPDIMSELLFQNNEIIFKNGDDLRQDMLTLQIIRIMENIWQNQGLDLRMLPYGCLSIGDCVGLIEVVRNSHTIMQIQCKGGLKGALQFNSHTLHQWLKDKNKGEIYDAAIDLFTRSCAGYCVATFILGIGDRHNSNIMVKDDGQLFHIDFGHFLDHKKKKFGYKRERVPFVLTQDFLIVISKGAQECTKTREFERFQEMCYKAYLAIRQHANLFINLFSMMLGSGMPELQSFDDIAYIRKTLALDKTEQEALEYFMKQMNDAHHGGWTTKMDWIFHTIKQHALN
T1 sequence (P27986 whole entry partner): as the sequence (P27986 whole entry partner) above

Take `CCn1c(-n2cnc3c2CCCC3)nc2c(N[C@H]3CCN(C(=O)C4CC4)C3)ncnc21` [Compound 8-8, N-[(3S)-1-(cyclopropylcarbonyl)pyrrolidin-3-yl]-9-ethyl-8-(4,5,6,7-tetrahydro-1H-benzimidazol-1-yl)-9H-purin-6-amine]: in test [1], the “Selectivity versus PI3Kalpha” value is over 10. Further, the IC50 in test [2] is under 1 nM.

Regarding `CCn1c(-c2cnc(C)nc2)nc2c(N[C@H]3CC[C@H](C(=O)N(C)C4CC4)C3)ncnc21` [Compound 5-1, (1S,3S)-N-cyclopropyl-3-{[9-ethyl-8-(2-methylpyrimidin-5-yl)-9H-purin-6-yl]amino}-N-methylcyclopentanecarboxamide], in test [1], the “Selectivity versus PI3Kalpha” value was over 10. Further, the IC50 in test [2] came out at 13 nM.

As to `CCn1c(-c2cnc(C)nc2)nc2c(N[C@H]3CCN(C(=O)C4C(C)(C)C4(C)C)C3)ncnc21` [Compound 2-60, 9-ethyl-8-(2-methylpyrimidin-5-yl)-N-{(3S)-1-[(2,2,3,3-tetramethylcyclopropyl)carbon-yl]pyrrolidin-3-yl}-9H-purin-6-amine], in test [1], the “Selectivity versus PI3Kalpha” value is listed as over 10. The IC50 in test [2] stood at 1.6 nM.

On to `CCn1c(C(=O)N[C@@H](C)C2CC2)nc2c(N[C@H]3CCN(C(=O)C4CC4)C3)ncnc21` [Compound 6-12, 6-{[(3S)-1-(cyclopropylcarbonyl)pyrrolidin-3-yl]amino}-N-[(1S)-1-cyclopropylethyl]-9-ethyl-9H-purine-8-carboxamide], for which the “Selectivity versus PI3Kalpha” value in test [1] is given as over 10. Moreover, in test [2], the IC50 was determined as 25 nM.

Take `CCn1c(-c2cnc(C)nc2)nc2c(N[C@H]3CCN(C(=O)OC(C)C)C3)ncnc21` [Compound 13-5, 1-methylethyl (3S)-3-{[9-ethyl-8-(2-methylpyrimidin-5-yl)-9H-purin-6-yl]amino}pyrrolidine-1-carboxylate]: the “Selectivity versus PI3Kalpha” value in test [1] is recorded as over 10. For the same molecule, the IC50 in test [2] came out at 6.2 nM.

Regarding `CCn1ncc(-c2nc3c(NC4CN(C(=O)C5CCOCC5)C4)ncnc3n2C)c1C` [Compound 2-48, 8-(1-ethyl-5-methyl-1H-pyrazol-4-yl)-9-methyl-N-[1-(tetrahydro-2H-pyran-4-ylcarbonyl)azetidin-3-yl]-9H-purin-6-amine], in test [1], the “Selectivity versus PI3Kalpha” value is listed as over 10. The IC50 in test [2] was found to be 16 nM.

On to `CCn1c(-c2cnc(C)nc2)nc2c(N[C@H]3CCN(c4nccc5sccc45)C3)ncnc21` [Compound 4-13, 9-ethyl-8-(2-methylpyrimidin-5-yl)-N-[(3S)-1-thieno[3,2-c]pyridin-4-y 1pyrrolidin-3-yl]-9H-purin-6-amine], for which the “Selectivity versus PI3Kalpha” value in test [1] is given as over 10. Besides, the IC50 in test [2] was 14 nM.

Consider `CCn1c(-c2cnc(C)nc2)nc2c(N[C@H]3CCN(C(=O)OCCOC)C3)ncnc21` [Compound 13-7, 2-methoxyethyl (3S)-3-{[9-ethyl-8-(2-methylpyrimidin-5-yl)-9H-purin-6-yl]amino}pyrrolidine-1-carboxylate], for which the “Selectivity versus PI3Kalpha” value in test [1] is over 10. Also, the IC50 in test [2] was determined as 4.1 nM.

For `CCCN1CC(Nc2ncnc3c2nc(-c2cnc(C)nc2)n3CC)CC1=O` (racemic) [Compound 14-4, 4(S and R)-{[9-ethyl-8-(2-methylpyrimidin-5-yl)-9H-purin-6-yl]amino}-1-propylpyrrolidin-2-one], the “Selectivity versus PI3Kalpha” value in test [1] was over 10. The IC50 in test [2] was 24 nM.

Regarding `CCn1c(-c2cnc(C)nc2)nc2c(NC3CN(C(=O)C4CC4)CC3O)ncnc21` (single isomer, unassigned) [Compound 2-97, 1-(cyclopropylcarbonyl)-4-{(3R,4R) or (3S,4S)-[9-ethyl-8-(2-methylpyrimidin-5-yl)-9H-purin-6-yl]amino}pyrrolidin-3-ol], the “Selectivity versus PI3Kalpha” value in test [1] is reported as over 10. Moreover, in test [2], the IC50 was determined as 2.9 nM.

With `CCn1ncc(-c2nc3c(N[C@@H]4CCN(C(=O)OC(C)(C)C)C4)ncnc3n2C)c1C` [Compound 1-1, tert-butyl (3R)-3-{[8-(1-ethyl-5-methyl-1H-pyrazol-4-yl)-9-methyl-9H-purin-6-yl]amino}pyrrolidine-1-carboxylate], the “Selectivity versus PI3Kalpha” value in test [1] is over 10. The IC50 in test [2] is 15 nM.

As to `CCn1c(-c2cnc(C)nc2)nc2c(N[C@H]3CCN(C(=O)C4CC4CF)C3)ncnc21` (mixture of isomers) [Compound 2-37, ((S)-3-((9-ethyl-8-(2-methylpyrimidin-5-yl)-9H-purin-6-yl)amino)pyrrolidin-1-yl)((1S,2S and 1R,2R)-2-(fluoromethyl)cyclopropyl) methanone], in test [1], the “Selectivity versus PI3Kalpha” value was over 10. Further, the IC50 in test [2] is under 1 nM.

Turning to `CCn1c(-c2cnc(C)nc2)nc2c(N[C@H]3CCN(C(=O)C4CCNCC4)C3)ncnc21` [Compound 2-78, 9-ethyl-8-(2-methylpyrimidin-5-yl)-N-[(3S)-1-(piperidin-4-ylcarbonyl)pyrrolidin-3-yl]-9H-purin-6-amine], the “Selectivity versus PI3Kalpha” value in test [1] was over 10. Also, the IC50 in test [2] is 4.6 nM.

In the case of `CCn1c(C(F)F)nc2c(N[C@H]3CCN(c4ccccn4)C3)ncnc21` [Compound 7-26, 8-(difluoromethyl)-9-ethyl-N-[(3S)-1-pyridin-2-ylpyrrolidin-3-yl]-9H-purin-6-amine], the “Selectivity versus PI3Kalpha” value in test [1] is over 10. Further, the IC50 in test [2] came out at 28 nM.

For `CCn1c(-c2ccc(C(F)(F)F)nc2)nc2c(N[C@H]3CCN(C(=O)C4CCCO4)C3)ncnc21` (single isomer, unassigned) [Compound 2-103, 9-ethyl-N-{(3S)-1-[(2S or 2R)-tetrahydrofuran-2-ylcarbonyl]pyrrolidin-3-yl}-8-[6-(trifluoromethyl)pyridin-3-yl]-9H-purin-6-amine], the “Selectivity versus PI3Kalpha” value in test [1] was over 10. Further, the IC50 in test [2] was 1.8 nM.

Take `CCn1c(-c2ccc(OC)nc2)nc2c(N[C@H]3CCN(C(=O)C4CC4)C3)ncnc21` [Compound 2-50, N-[(3S)-1-(cyclopropylcarbonyl)pyrrolidin-3-yl]-9-ethyl-8-(6-methoxypyridin-3-yl)-9H-purin-6-amine]: the “Selectivity versus PI3Kalpha” value in test [1] is over 10. For the same molecule, the IC50 in test [2] was under 1 nM.

In the case of `CCn1c(-c2cnc(C)nc2)nc2c(N[C@H]3CCCN(c4ccccn4)C3)ncnc21` [Compound 4-5, 9-ethyl-8-(2-methylpyrimidin-5-yl)-N-[(3S)-1-pyridin-2-ylpiperidin-3-yl]-9H-purin-6-amine], in test [1], the “Selectivity versus PI3Kalpha” value is recorded as over 10. The IC50 in test [2] is 9.6 nM.

As for `CCC(=O)N1CC[C@H](Nc2ncnc3c2nc(-c2ccc(OC)nc2)n3C)C1` [Compound 3-31, 8-(6-methoxypyridin-3-yl)-9-methyl-N-[(3S)-1-propanoylpyrrolidin-3-yl]-9H-purin-6-amine], the “Selectivity versus PI3Kalpha” value in test [1] is listed as over 10. For the same molecule, the IC50 in test [2] was 4 nM.

Take `CCn1c(-c2cnc(C(C)(C)C)s2)nc2c(N(C)[C@H]3CCN(C(=O)OC(C)(C)C)C3)ncnc21` [Compound 1-7, (S)-tert-butyl 3-((8-(2-(tert-butyl)thiazol-5-yl)-9-ethyl-9H-purin-6-yl)(methyl)amino)pyrrolidine-1-carboxylate]: in test [1], the “Selectivity versus PI3Kalpha” value is over 10. Moreover, in test [2], the IC50 turned out to be 6.7 nM.

In the case of `CCn1c(C(F)F)nc2c(N[C@H]3CCN(C(=O)C4CC45CCCC5)C3)ncnc21` (single isomer, unassigned) [Compound 7-20, (S or R)-8-(difluoromethyl)-9-ethyl-N-[(3S)-1-(spiro[2.4]hept-1-ylcarbonyl)pyrrolidin-3-yl]-9H-purin-6-amine], the “Selectivity versus PI3Kalpha” value in test [1] is over 10. Also, the IC50 in test [2] turned out to be 710 nM.

(Values after patent publication US9938281B2 (Merck Sharp & Dohme Corp., priority 2012, dated 2018).)
